Laboratory results as given in PubChem BioAssay AID330 (DTP/NCI, 2004).
“And” between values parts separate entries of the source, which are not always exact repeats. Equal entries are not always repeated. Toxic doses and inconclusive results are not listed.

System: P388 leukemia ip, CD2F1 mice, survival T/C
Assay: NCI In Vivo Anticancer Drug Screen. Data for tumor model P388 Leukemia (intraperitoneal) in CD2F1 (CDF1) mice
Conditions: endpoint: median survival time, higher = longer survival
Method in brief: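 Mice carrying the transplanted tumor received test compound or vehicle. Survival was recorded in each group, and the value is the treated-group measurement divided by that of the vehicle-treated control group.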

[1] = dose: 25.0 mg/kg/injection, schedule: Q01DX005 (ip), vehicle: saline with Tween-80
[2] = dose: 50.0 mg/kg/injection, schedule: Q01DX005 (ip), vehicle: saline with Tween-80
[3] = dose: 200.0 mg/kg/injection, schedule: Q01DX005 (ip), vehicle: saline with Tween-80
[4] = dose: 60.0 mg/kg/injection, schedule: Q01DX005 (ip), vehicle: saline with Tween-80
[5] = dose: 120.0 mg/kg/injection, schedule: Q01DX005 (ip), vehicle: saline with Tween-80
[6] = dose: 240.0 mg/kg/injection, schedule: Q01DX005 (ip), vehicle: saline with Tween-80
[7] = dose: 50.0 mg/kg/injection, schedule: Q01DX001 (ip), vehicle: saline with Tween-80
[8] = dose: 100.0 mg/kg/injection, schedule: Q01DX001 (ip), vehicle: saline with Tween-80
[9] = dose: 200.0 mg/kg/injection, schedule: Q01DX001 (ip), vehicle: saline with Tween-80
[10] = dose: 12.5 mg/kg/injection, schedule: Q01DX005 (ip), vehicle: Klucel (hydroxypropylcellulose) (HPC)
[11] = dose: 25.0 mg/kg/injection, schedule: Q01DX005 (ip), vehicle: Klucel (hydroxypropylcellulose) (HPC)
[12] = dose: 50.0 mg/kg/injection, schedule: Q01DX005 (ip), vehicle: Klucel (hydroxypropylcellulose) (HPC)

CC(C)N1C(=O)N(Cl)C2C1N(Cl)C(=O)N2Cl (configuration not stated)
T/C [1]: 99 % of control
T/C [2]: 108 % of control and 122 % of control
T/C (dose: 100.0 mg/kg/injection, schedule: Q01DX005 (ip), vehicle: saline with Tween-80): 122 % of control
T/C [3]: 113 % of control and 117 % of control

O=c1[nH]cnc2cccc(Cl)c12
T/C [4]: 90 % of control
T/C [5]: 90 % of control
T/C [6]: 100 % of control

COc1cc2c(cc1CCCc1cc(OC)c(OC)c(OC)c1)OCO2
T/C [4]: 92 % of control
T/C [5]: 89 % of control
T/C [6]: 86 % of control

COC(=O)c1c(-c2ccccc2)c(-c2ccccc2)nn(-c2ccccc2)c1=O
T/C [7]: 100 % of control and 102 % of control
T/C [8]: 99 % of control and 100 % of control
T/C [9]: 92 % of control and 97 % of control
T/C (dose: 400.0 mg/kg/injection, schedule: Q01DX001 (ip), vehicle: saline with Tween-80): 87 % of control and 90 % of control

O=C(CCCN1CCN(c2cc3ccccc3cn2)CC1)c1ccc(F)cc1
T/C [10]: 109 % of control
T/C [11]: 109 % of control
T/C [12]: 110 % of control and 115 % of control

N#C/C(=C/c1ccc(Cl)cc1)C(N)=O
T/C (dose: 25.0 mg/kg/injection, schedule: Q01DX001 (ip), vehicle: saline with Tween-80): 102 % of control
T/C [7]: 104 % of control
T/C [8]: 97 % of control
T/C [9]: 97 % of control

Clc1cc[c]([Sn]([Cl])([O][Sn]([Cl])([c]2ccc(Cl)cc2)[c]2ccc(Cl)cc2)[c]2ccc(Cl)cc2)cc1
T/C (dose: 3.12 mg/kg/injection, schedule: Q01DX005 (ip), vehicle: saline): 103 % of control
T/C (dose: 6.25 mg/kg/injection, schedule: Q01DX005 (ip), vehicle: saline): 108 % of control
T/C (dose: 12.5 mg/kg/injection, schedule: Q01DX005 (ip), vehicle: saline): 119 % of control
T/C (dose: 25.0 mg/kg/injection, schedule: Q01DX005 (ip), vehicle: saline): 162 % of control

COc1ccc(C(C)c2cc(C(C)(C)C)cc(C(C)(C)C)c2O)cc1 (configuration not stated)
T/C (dose: 50.0 mg/kg/injection, schedule: Q01DX005 (ip), vehicle: distilled water + alcohol): 100 % of control
T/C (dose: 100.0 mg/kg/injection, schedule: Q01DX005 (ip), vehicle: distilled water + alcohol): 96 % of control
T/C (dose: 200.0 mg/kg/injection, schedule: Q01DX005 (ip), vehicle: distilled water + alcohol): 94 % of control

CCOc1ccc(C(C)c2cc3c(cc2OCCO)OCO3)cc1 (configuration not stated)
T/C [10]: 109 % of control
T/C [11]: 97 % of control
T/C [12]: 104 % of control
T/C (dose: 100.0 mg/kg/injection, schedule: Q01DX005 (ip), vehicle: Klucel (hydroxypropylcellulose) (HPC)): 103 % of control
T/C (dose: 200.0 mg/kg/injection, schedule: Q01DX005 (ip), vehicle: Klucel (hydroxypropylcellulose) (HPC)): 102 % of control

C/C(N=NC(=S)N1CCSCC1)=C1\C=CC=CN1O
T/C (dose: 12.5 mg/kg/injection, schedule: Q01DX005 (ip), vehicle: saline with Tween-80): 97 % of control
T/C [1]: 100 % of control
T/C [2]: 107 % of control and 97 % of control
T/C [3]: 102 % of control

NC(Cc1c[nH]c2ccccc12)C(=O)NCCS(=O)(=O)O (configuration not stated)
T/C [4]: 102 % of control
T/C [5]: 104 % of control
T/C [6]: 99 % of control

NCCCN1CCCC1
T/C (dose: 50.0 mg/kg/injection, schedule: Q01DX005 (ip), vehicle: saline): 95 % of control
T/C (dose: 100.0 mg/kg/injection, schedule: Q01DX005 (ip), vehicle: saline): 105 % of control

O=[N+]([O-])c1ccc(S(=O)/N=C/c2ccccc2)c([N+](=O)[O-])c1 (configuration not stated)
T/C (dose: 12.5 mg/kg/injection, schedule: Q01DX009 (ip), vehicle: Klucel (hydroxypropylcellulose) (HPC)): 119 % of control
T/C (dose: 25.0 mg/kg/injection, schedule: Q01DX009 (ip), vehicle: Klucel (hydroxypropylcellulose) (HPC)): 118 % of control

c1ccc(Cn2c(-c3ccccc3)c[n+]3ccsc23)cc1
T/C (dose: 3.12 mg/kg/injection, schedule: Q01DX009 (ip), vehicle: saline with Tween-80): 117 % of control
T/C (dose: 6.25 mg/kg/injection, schedule: Q01DX009 (ip), vehicle: saline with Tween-80): 115 % of control and 94 % of control
T/C (dose: 12.5 mg/kg/injection, schedule: Q01DX009 (ip), vehicle: saline with Tween-80): 108 % of control and 117 % of control
